# In PMC11802874, “The hypolipidemic effect of MI-883, the combined CAR agonist/ PXR antagonist, in diet-induced hypercholesterolemia model” (Nature Communications, 2025):
# Where “and” joins values, the source holds several entries; their conditions need not be identical. Identical values can stand only once.
# Legend:
# [1] = Chemical stability (shelf, DMSO stock) and solubility in solvents; format: physicochemical
# Description: 1. Biological half-life was investigated. But is MI-883 stable on the shelf? […]
# Our medicinal chemistry team analyzed the MI-883 sample that had been stored on the lab bench at […]
# compared to the freshly prepared sample (see Figure R1).
# In addition, the compound is stable for at least two years in dimethyl sulfoxide (DMSO) as we confirm using published protocols 1,2(see data in Table R1).
# Table 1: LC/MS data for MI-883 stability in DMSO solution
# Study protocol: Stability of MI-883 stock solution in DMSO after two years at -20°C A 10 mM solution of MI-883 was prepared in DMSO and divided into multiple aliquots in 2 mL cryovials.
# The samples were stored at -20°C for two years in a standard laboratory freezer. Mass spectrometric analysis was conducted using LC/MS (Sciex QTRAP 7500). Stability was determined based on three independently prepared 1 µM solutions from stored stock.
# DMSO stock solution at -20°C over two years. However, for critical pharmaceutical use, additional studies at different temperatures and under varied conditions (e.g., light exposure, humidity) may be necessary to fully assess long-term stability. […]
# We used several computational prediction tools to determine water […]
# μg/mL (0.9 μM) and 0.2 μg/mL (0.4 μM). Using QikProp tool (Schrödinger software package), the […]
# According to the ADMET Predictor software package […]
# predictions align with our observations and confirm the poor water solubility of MI-883, although we […]
# The compound is well soluble in methanol and can dissolve in ethanol up to a concentration of 30 mM. […]
# [2] = tested on: humanized PXR-CAR-CYP3A4/3A7 mice, liver; assay: NGS RNA-Seq of liver samples (HFD study); format: in vivo, mouse
# Method: Total RNA from liver samples has been isolated using TRIZOL®. Total RNA was purified using Agencourt RNAClean XP Beads (Beckman Coulter, Inc.) and then the diluted RNA was quantified using Qubit 2.0 Fluorometer with Qubit RNA BR Assay Kit (Invitrogen) for precise measurement. The integrity of purified RNA was evaluated based on RIN (>7) acquired using the 2100 Bioanalyzer System with Total RNA Nano Chip (Agilent Technologies) according to the manufacturer’s protocol.
# The input amount of total RNA used in the libraries was 520 ng. Libraries were constructed with NEBNext Ultra II Directional RNA Library Prep Kit for Illumina (New England Biolabs Inc., Ipswich, MA, USA). […] The samples were multiplexed using suitable molecular barcodes by using the NEBNext Multiplex Oligos from Illumina. Adaptor enrichment was performed by using eight cycles of PCR.
# The concentration of molecular libraries was measured using Qubit 2.0 Fluorometer with Qubit dsDNA HS Assay Kit (Invitrogen) and subsequently, the fragment sizes were analyzed by Bioanalyzer System 2100 using High Sensitivity DNA Chip (Agilent Technologies), with expected fragments between 200 and 600 bp in size. The molarity of individual libraries was calculated using determined concentrations and modal lengths. Each sample of the library was normalized to 14 nM concentration, and the normalized libraries were pooled and sequenced on an Illumina NovaSeq6000 platform (Illumina) with paired-end sequencing of libraries with a read length of 150 b.
# The quality of raw sequencing data was assessed using MultiQC tool. Fastq files were aligned to the mouse reference genome (mm10) using STAR aligner and featureCounts was used to make count matrices. Data was filtered to only include genes with a minimum 60 counts in all samples. Data were analyzed using the DESeq2 package of RStudio 2023.06.1 and R software v4.3.1 (https://www.R-project.org/). […] P values were adjusted for multiple testing to reduce false discovery rate. For further analysis RNAs with more than twofold expression were selected (log2FC > 1 or < –1). Differential expression was analyzed using DESeq2 package (Fig. 4a). Volcano plot was visualized using R package ggplot2 and ggrepel. Gene ontology (GO) and pathway analyses were done with the R package clusterProfiler[64] using function enrichGO. P value < 0.001 was defined as the significance threshold.
# A heatmap was made using z-score normalized reads (z = [x-mean]/standard deviation) and visualized using the R package pheatmap. Hierarchical clustering was performed with the Ward method as a part of the pheatmap R package. The data presented in this publication have been deposited in NCBI’s Gene Expression Omnibus database with GEO Series accession number GSE262786.https://www.ncbi.nlm.nih.gov/geo/query/acc.cgi?acc=GSE262786.
# THα = THα (Homo sapiens, UniProt P10827); assay: Luciferase reporter gene assay THα, HepG2
# THα, sequence (P10827 163-410 isoform P10827-2 limits assumed): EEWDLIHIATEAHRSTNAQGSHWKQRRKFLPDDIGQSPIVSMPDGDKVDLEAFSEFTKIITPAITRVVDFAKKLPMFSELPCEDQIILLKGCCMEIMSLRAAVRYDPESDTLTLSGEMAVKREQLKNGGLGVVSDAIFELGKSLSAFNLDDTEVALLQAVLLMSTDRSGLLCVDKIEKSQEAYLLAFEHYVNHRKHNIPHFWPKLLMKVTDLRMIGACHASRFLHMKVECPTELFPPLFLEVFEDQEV
# Description: Gal4-LBD constructs of tested nuclear receptors have been used together with pGL4.31[luc2P/GAL4UAS/Hygro] luciferase reporter construct and pRL-TK Renilla expression vector (both from Promega, Hercules, USA) in HepG2 cells transfected with Lipofectamine 2000 or 3000 reagents. For GRα and FXR receptors, full-length expression vectors have been used with pGRE-luc or pFXRE-luc luciferase constructs. For the aryl hydrocarbon receptor (AhR), p1A1-luc construct was used with only pRL-TK vector for transfection normalization. A dual reporter assay (Promega, Hercules, USA) was used to analyze both firefly and Renilla luciferase activities.
# Gal4-LBD constructs of tested nuclear receptors have been used together with pGL5-luc luciferase reporter construct and pRL-TK Renilla expression vector in HepG2 cells transfected with Lipofectamine 2000 or 3000 reagents. For GRα and FXR receptors, full-length expression vectors have been used with pGRE-luc or pFXRE-luc luciferase constructs. For the aryl hydrocarbon receptor (AhR), p1A1-luc construct was used with only pRL-TK vector for transfection normalization. […] Bars represent means±S.D. (n=3).
# [3] = tested on: humanized PXR-CAR-CYP3A4/3A7 mice, ileum; assay: RT-qPCR and Western blotting of ileum samples (HFD/HCD studies); format: in vivo, mouse; conditions: for Npc1l1 mRNA (RT-qPCR ileum): FigS14a
# Description: Specific TaqMan probes were used to analyze ileal samples, following the protocol described in Supplementary Table S3.
# Western blotting experiments have been performed in BioRad instruments with BioRad precasted gels and reagents. Antibodies are listed in Supplementary Table S4. Densitometry has been done using ChemiDoc™ MP Imaging System and software (BioRad, Hercules, USA). Data are presented as relative protein expression to control samples. For protein expression quantification, areas in histograms have been calculated and related to a reference protein.
# [4] = FigS14b, ileum, individual animals, relative to vehicle
structure (smiles),measurement,setting,value
"NC(=O)c1cc(Cn2cc(-c3c(-c4ccc(Cl)cc4)nc4cc(F)ccn34)nn2)ccc1Cl [MI-883, 2-chloro-5-((4-(2-(4-chlorophenyl)-7-fluoroimidazo[1,2-a]pyridin-3-yl)-1H-1,2,3-triazol-1-yl)methyl)benzamide]",solubility in methanol,[1],well soluble
same,LC/MS concentration of 1 µM solution from DMSO stock,[1]; 2 year at -20°C in DMSO,1.007 µM
same,decomposition on the lab bench at room temperature,"[1]; 6 months, HPLC/MS",no significant decomposition
same,water solubility,[1]; not experimentally determined,low water solubility
same,LC/MS concentration of 1 µM solution from DMSO stock,[1]; time 0,1.012 µM
same,"liver Apoc1, Apoc4, Apoa5, Apoa1, RNA-Seq",[2]; HFD study,marginally but significantly downregulated
same,"liver Scarb1, Angptl3, Lipc, RNA-Seq",[2]; HFD study,"marginally, but significantly, downregulated"
same,"liver genes of fatty acid metabolism (Scd1, Fabp2, Srebf1), RNA-Seq",[2]; HFD study,significantly downregulated
same,"liver transporters Abcb1, Bsep, Abcg5/8",[2]; HFD study,not been significantly affected
same,liver Hmgcr mRNA upregulation,[2]; HFD study (Fig. 6e),1.31 fold and 1.3 fold
same,"liver Scd1 mRNA, log2FC_DESeq","[2]; HFD study, n=5, FDR_DESeq 0.0023",-0.4854 log2FC
same,"liver Cyp2c70, log2FC","[2]; HFD study, 0.008 FDR_DESeq",–0.58 log2FC
same,"NRs assays: TH (GL4-hTRa) (relative to ctrl, replicates)",THα,1.64 and 1.08 and 1.31
same,Npc1l1 mRNA (RT-qPCR ileum),"[3]; HCD, ileum, individual animals, relative to vehicle",0.6886 and 0.6208 and 0.503 and 1.313 and 0.759 and 0.8325
same,Npc1l1 mRNA (RT-qPCR ileum),"[3]; HFD, ileum, individual animals, relative to vehicle",1.357 and 1.364 and 0.9665 and 1.432
same,Abcg5 mRNA (RT-qPCR ileum),[3]; [4],1.01 and 0.5455 and 0.4999 and 1.367 and 0.6847 and 1.339
same,Abcg8 mRNA (RT-qPCR ileum),[3]; [4],0.9573 and 0.7781 and 0.4243 and 1.303 and 0.6152 and 1.193
same,Fgf15 mRNA (RT-qPCR ileum),"[3]; FigS14c, HCD, ileum, individual animals, relative to vehicle",0.6669 and 0.9092 and 0.1811 and 0.1054 and 2.113 and 1.33
same,Fgf15 mRNA (RT-qPCR ileum),"[3]; FigS14c, HFD, ileum, individual animals, relative to vehicle",0.03638 and 0.6965 and 4.34 and 0.01802
same,Shp mRNA (RT-qPCR ileum),"[3]; FigS14c, ileum, individual animals, relative to vehicle",1.017 and 0.2256 and 0.2775 and 0.6923 and 3.416 and 0.8457
same,Asbt protein in the mouse ileum,[3]; HFD study,significantly decreased
same,"ileum Cyp2b6 i, individual animals","[3]; HFD study, relative to control",4.346 and 14.7968 and 1.588 and 2.908 and 3.922 and 0.8524
same,"ileum Mrp4 i, individual animals","[3]; HFD study, relative to control",0.275 and 0.7792 and 1.874 and 1.502 and 1.969 and 1.209
same,"ileum Slc10a2 i, individual animals","[3]; HFD study, relative to control",0.08727 and 0.1129 and 0.7704 and 0.8835 and 0.4948
same,"ileum Slc51a i, individual animals","[3]; HFD study, relative to control",0.2127 and 0.5386 and 0.8471 and 0.8796 and 0.7946 and 0.7965
same,"ileum Slc51b i, individual animals","[3]; HFD study, relative to control",0.7174 and 1.595 and 0.9945 and 0.7427 and 0.4728 and 0.5989
same,ileal Npc1l1 and Abcg5/8,[3]; Supplementary Fig. 14,did not observe any regulation
same,ileal Shp and Fgf15 mRNA levels,[3]; Supplementary Fig. 14,not affected
